Measurements published in patent US20100173888A1 (Pfizer Inc, priority 2008, published 2010).

Biological target: human recombinant H-PGDS (Homo sapiens, UniProt O60760)
Assay: Slightly modified fluorescence intensity h-PGDS TBA enzyme assay (1:40,000 enzyme, 40 second reaction, 1/2 log dilutions, top concentration typically 10 μM)
Type: biochemical
Details: slightly modified assay: 1:40,000 human recombinant H-PGDS
Protocol: Fluoresecence Intensity h-PGDSTBA Enzyme Assay
Prostaglandin D Synthase (PGDS) converts the substrate prostaglandin H2 (PGH2) to prostaglandin D2. The depletion of PGH2 was measured via an Fe(II) reduction of the remaining PGH2 to malondialdehyde (MDA) and 12-HHT. The enzyme assay is based on the quantitative formation of a fluorescent complex from the non-fluorescent compounds MDA and 2-thiobarbituric acid (TBA), substantially as described in U.S. patent application publication US-2004/152148 by Lombardt.
Examples 6-8, 11a-16, 23, 26-47, 49-103, 105-113, 115-118 and 126-128 were tested in a slightly modified assay: The enzyme assay (30 μls during biological process) contained 100 mM Trizma pH 8.0, 100 μM MgCl2, 0.1 mg/ml IgG Rabbit serum, 5.0 μM PGH2 (Cayman; ethanol solution, #17020), 2.5 mM L-Glutathione (Sigma; reduced form #G4251), 1:40,000 human recombinant H-PGDS (from 1 mg/ml), 0.5% DMSO and inhibitor (varying concentration). 3 μls of diluted inhibitor (dissolved in DMSO) was plated into a 384-well assay plate followed by a 24 μl addition of an enzyme solution containing h-PGDS, Trizma, MgCl2, IgG and L-Glutathione. After pre-incubation of inhibitor and enzyme solution for 10 minutes at room temperature, the reaction was initiated with a 3 μl addition of substrate solution in 10 mM HCl. The reaction was terminated after 40 second by the addition of 3 μl stop buffer containing FeCl2 and citric acid. After addition of 45 μls of TBA plates were heated for one hour in a 70° C. oven. Plates were cooled at room temperature overnight and read on a plate reader the next day with excitation @ 530 nm and emission @ 560 nm. IC50' s of inhibitors were calculated with a 4-parameter fit using 11 inhibitor concentrations in duplicate with ½ log serial dilutions. Controls on each plate included no inhibitor (zero % effect) and an inhibitor 500-fold in excess of its' IC50 (100% effect). The highest inhibitor concentration tested was typically 10 μM.

Chain of human recombinant H-PGDS (O60760 whole entry): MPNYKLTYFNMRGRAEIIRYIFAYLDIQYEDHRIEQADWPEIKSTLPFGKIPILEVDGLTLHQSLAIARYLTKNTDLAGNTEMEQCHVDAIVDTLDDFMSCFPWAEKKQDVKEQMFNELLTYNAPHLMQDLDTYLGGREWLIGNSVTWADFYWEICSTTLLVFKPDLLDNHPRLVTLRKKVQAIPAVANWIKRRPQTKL

IC50	SMILES
31.8 nM	CNCCN(C)C(=O)[C@H]1CC[C@@H](NC(=O)c2ccc(-c3cccc(F)c3)nc2)CC1 [Example 76, 6-(3-Fluorophenyl)-N-(cis-4-{methyl[2-(methylamino)ethyl]carbamoyl}cyclohexyl)nicotinamide]
137 nM	O=C(NC1CCC(N2CCC(O)CC2)CC1)c1ccc(-c2cccc(F)c2)nc1 (stereo not shown) [Example 62, 6-(3-Fluorophenyl)-N-[4-(4-hydroxypiperidin-1-yl)cyclohexyl]nicotinamide]
2.71 nM	CN(C)C(=O)[C@H]1CC[C@H](NC(=O)c2ccc(-c3cccc(F)c3)nc2)CC1 [Example 92, N-[trans-4-(Dimethylcarbamoyl)cyclohexyl]-6-(3-fluorophenyl)nicotinamide]
14.7 nM	O=C(N[C@H]1CC[C@@H](C(=O)NC2CCCC2)CC1)c1ccc(-c2cccc(F)c2)nc1 [Example 69, N-[cis-4-(Cyclopentylcarbmoyl)cyclohexyl]-6-(3-fluorophenyl)nicotinamide]
14.4 nM	O=C(N[C@H]1CCC[C@@H](C(=O)N2CCN(C3CC3)CC2)C1)c1ccc(-c2cccc(F)c2)nc1 (relative stereo) [Example 43, N-{cis-3-[(4-Cyclopropylpiperazin-1-yl)carbonyl]cyclohexyl}-6-(3-fluorophenyl)nicotinamide]
21.8 nM	C[C@@H]1CNCCN1C(=O)[C@H]1CC[C@H](NC(=O)c2ccc(-c3cccc(F)c3)nc2)CC1 [Example 108, 6-(3-Fluorophenyl)-N-(trans-4-{[(2R)-2-methylpiperazin-1-yl]carbonyl}cyclohexyl)nicotinamide]
18.5 nM	COCCNC1CCC(NC(=O)c2ccc(-c3cccc(F)c3)nc2)CC1 (single isomer, unassigned) [Example 55, 6-(3-Fluorophenyl)-N-{4-[(2-methoxyethyl)amino]cyclohexyl}nicotinamide]
14.2 nM	CC(C)c1nccn1[C@H]1CC[C@H](NC(=O)c2ccc(-c3cccc(F)c3)nc2)CC1 [Example 106, 6-(3-Fluorophenyl)-N-[trans-4-(2-isopropyl-1H-imidazol-1-yl)cyclohexyl]nicotinamide]
6.93 nM	CO[C@H]1CC[C@H](NC(=O)c2ccc(-c3cccc(F)c3)nc2)CC1 [Example 83, 6-(3-Fluorophenyl)-N-(trans-4-methoxycyclohexyl)nicotinamide]
125 nM	O=C(N[C@@H]1CC[C@H](C(=O)O)C1)c1ccc(-c2cccc(F)c2)nc1 [Example 11a, (1S,3R)-3-({[6-(3-Fluorophenyl)pyridin-3-yl]carbonyl}amino)cyclopentanecarboxylic acid]
11.2 nM	N[C@@H]1CCN(C(=O)[C@H]2CC[C@H](NC(=O)c3ccc(-c4cccc(F)c4)nc3)CC2)C1 [Example 99, N-(trans-4-{[(3R)-3-Aminopyrrolidin-1-yl]carbonyl}cyclohexyl)-6-(3-fluorophenyl)nicotinamide]
159 nM	O=C(NC1CC1)c1ccc(-c2cccc(F)c2)nc1 [Example 6, N-Cyclopropyl-6-(3-fluoro-phenyl)-nicotinamide]
10.7 nM	CC(=O)NC1CCC(NC(=O)c2ccc(-c3cccc(F)c3)nc2)CC1 (stereo not shown) [Example 46, N-(4-Acetamidocyclohexyl)-6-(3-fluorophenyl)nicotinamide]
12.6 nM	Cn1nnnc1O[C@H]1CC[C@H](NC(=O)c2ccc(-c3cccc(F)c3)nc2)CC1 [Example 82, 6-(3-Fluorophenyl)-N-{trans-4-[(1-methyl-1H-tetrazol-5-yl)oxy]cyclohexyl}nicotinamide]
51.9 nM	CN[C@H]1CC[C@H](NC(=O)c2ccc(-c3cccc(F)c3)nc2)CC1 [Example 94, 6-(3-Fluorophenyl)-N-[trans-4-(methylamino)cyclohexyl]-nicotinamide]
8.29 nM	CN1CCN(C(=O)[C@@H]2CCC[C@H](NC(=O)c3ccc(-c4cccc(F)c4)nc3)C2)CC1 (relative stereo) [Example 35, 6-(3-Fluorophenyl)-N-{cis-3-[(4-methylpiperazin-1-yl)carbonyl]cyclohexyl}nicotinamide]
2.75 nM	O=C(N[C@H]1CC[C@H](C(=O)N2CCC(O)CC2)CC1)c1ccc(-c2cccc(F)c2)nc1 [Example 85, 6-(3-Fluorophenyl)-N-{trans-4-[(4-hydroxypiperidin-1-yl)carbonyl]cyclohexyl}nicotinamide]

IC50	SMILES
30.5 nM	COCCN(C)C1CCC(NC(=O)c2ccc(-c3cccc(F)c3)nc2)CC1 (single isomer, unassigned) [Example 59, 6-(3-Fluorophenyl)-N-{4-[(2-methoxyethyl)(methyl)amino]cyclohexyl}nicotinamide]
17.2 nM	O=C(N[C@H]1CCC[C@@H](C(=O)N[C@@H]2CCNC2=O)C1)c1ccc(-c2cccc(F)c2)nc1 (mixture of isomers) [Example 64G, 6-(3-fluorophenyl)-N-[cis-3-{[(3R)-2-oxopyrrolidin-3-yl]carbamoyl}cyclohexyl]nicotinamide]
32 nM	O=C(NC1CCC(NC2CCOC2)CC1)c1ccc(-c2cccc(F)c2)nc1 (single isomer, unassigned) [Example 57, 6-(3-Fluorophenyl)-N-[-4-(tetrahydrofuran-3-ylamino)cyclohexyl]nicotinamide]
10.9 nM	O=C(N[C@H]1CCC[C@@H](C(=O)N[C@@H]2CCOC2)C1)c1ccc(-c2cccc(F)c2)nc1 (mixture of isomers) [Example 64K, 6-(3-fluorophenyl)-N-{cis-3-[(3R)-tetrahydrofuran-3-ylcarbamoyl]cyclohexyl}nicotinamide]
51.2 nM	CN1CCN(C(=O)C2(C)CCC(NC(=O)c3ccc(-c4cccc(F)c4)nc3)CC2)CC1 (stereo not drawn) [Example 118, 6-(3-Fluorophenyl)-N-{cis-4-methyl-4-[(4-methylpiperazin-1-yl)carbonyl]cyclohexyl}nicotinamide]
4.07 nM	CCn1cnc2c1CCC(NC(=O)c1ccc(-c3cccc(F)c3)nc1)C2 (stereo not shown) [Example 126, N-(1-Ethyl-4,5,6,7-tetrahydro-1H-benzoimidazol-5-yl)-6-(3-fluoro-phenyl)-nicotinamide]
6.2 nM	O=C(NC1CCC(c2ncc[nH]2)CC1)c1ccc(-c2cccc(F)c2)nc1 (single isomer, unassigned) [Example 64, 6-(3-Fluorophenyl)-N-[4-(1H-imidazol-2-yl)cyclohexyl]nicotinamide]
7.17 nM	C[C@]1(C(=O)O)CC[C@H](NC(=O)c2ccc(-c3cccc(F)c3)nc2)CC1 [Example 117, trans-4-({[6-(3-Fluorophenyl)pyridin-3-yl]carbonyl}amino)-1-methylcyclohexanecarboxylic acid]
5.02 nM	O=C(N[C@H]1CCC[C@@H](C(=O)N2CCCC2)C1)c1ccc(-c2cccc(F)c2)nc1 (relative stereo) [Example 29, 6-(3-Fluorophenyl)-N-[cis-3-(pyrrolidin-1-ylcarbonyl)cyclohexyl]nicotinamide]
22 nM	O=C(N[C@H]1CC[C@@H](C(=O)NCc2ccccc2)CC1)c1ccc(-c2cccc(F)c2)nc1 [Example 71, N-[cis-4-(Benzylcarbamoyl)cyclohexyl]-6-(3-fluorophenyl)nicotinamide]
18.2 nM	O=C(N[C@@H]1CCC[C@H](O)C1)c1ccc(-c2cccc(F)c2)nc1 (relative stereo) [Example 26, 6-(3-Fluorophenyl)-N-[cis-3-hydroxycyclohexyl]nicotinamide]
15.3 nM	CNCCN(C)C(=O)[C@H]1CC[C@H](NC(=O)c2ccc(-c3cccc(F)c3)nc2)CC1 [Example 93, 6-(3-Fluorophenyl)-N-(trans-4-{methyl[2-(methylamino)ethyl]carbamoyl}cyclohexyl)nicotinamide]
179 nM	O=C(NC1CCCc2cccnc21)c1ccc(-c2cccc(F)c2)nc1 (stereo not shown) [Example 128, 6-(3-Fluorophenyl)-N-(5,6,7,8-tetrahydroquinolin-8-yl)nicotinamide]
17.4 nM	O=C(N[C@@H]1CCCC[C@@H]1O)c1ccc(-c2cccc(F)c2)nc1 (relative stereo) [Example 23]
47 nM	N[C@@H]1CCCC[C@H]1NC(=O)[C@@H]1CCC[C@H](NC(=O)c2ccc(-c3cccc(F)c3)nc2)C1 (mixture of isomers) [Example 64C, N-[cis-3-{[(1R,2R)-2-aminocyclohexyl]carbamoyl}cyclohexyl]-6-(3-fluorophenyl)nicotinamide]
9.76 nM	Cc1nccn1C[C@H]1CC[C@H](NC(=O)c2ccc(-c3cccc(F)c3)nc2)CC1 [Example 113, 6-(3-Fluorophenyl)-N-{trans-4-[(2-methyl-1H-imidazol-1-yl)methyl]cyclohexyl}nicotinamide]
3.94 nM	O=C(N[C@H]1CC[C@H](C(=O)N2CCOCC2)CC1)c1ccc(-c2cccc(F)c2)nc1 [Example 91, 6-(3-Fluorophenyl)-N-[trans-4-(morpholin-4-ylcarbonyl)cyclohexyl]nicotinamide]
